Structures are written as SMILES.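 How tested: cells in 96-well plates exposed to compound for 48 hours at five concentrations. GI50: concentration for 50% inhibition of growth. TGI is the concentration that stops growth completely.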 Some results are limits rather than exact numbers.

Common to all, as to experiment: NCI tumour cell line growth inhibition, 48 h
Test [1] deals with A498 renal.
Test [2] has as its system CAKI-1 renal.
Test [3] concerns HS 578T breast.
Test [4] has as its system MALME-3M melanoma.
Test [5] has as its system MDA-MB-231 breast.
Test [6] has as its system MOLT-4 leukemia.
Test [7] has as its system OVCAR-5 ovarian.
Test [8] has as its system SK-MEL-5 melanoma.
The test system of test [9] is UACC-62 melanoma.
For test [10], the system named is UO-31 renal.

Turning to `O=C(CSc1nc2ccccc2nc1-c1ccccc1)Nc1ccc(Cl)cc1`, the GI50 in test [1] is 31400 nM; in test [2], 12500 nM; in test [3], 16.1 µM; in test [4], 27200 nM; in test [5], 30500 nM; in [6] it was > 100000 nM. In addition, the GI50 in [7] was > 100 µM; in test [8] it was 19300 nM; in [9], 20.7 µM; in [10], 55400 nM. The TGI in test [1] was > 100 µM; in test [2], 38.1 µM; in [3] it was 70 µM; in [4], 78 µM; in test [5] it was > 100 µM; in test [6] it was > 100 µM. Moreover, the TGI in [7], in test [8], in test [9] and in test [10] was > 100 µM each time.
In the case of `Cc1cc(C(=O)Nc2nc3cccc(Cl)c3n2[C@@H]2CCCCN(C(=O)/C=C/CN(C)C)C2)ccn1`, the GI50 in test [1] is 514 nM; in [2], 580 nM; in [3] it was 9.11 µM; in test [4], 18200 nM; in test [5], 13000 nM; in test [6], 7130 nM. For the same compound, the GI50 is 17.7 µM in [7], 8970 nM in test [8], 15.3 µM in test [9] and 2710 nM in test [10]. Also, the TGI in test [1] is 14.1 µM; in test [2], 17.2 µM; in [3], 37.3 µM; in test [4], 34 µM; in [5] it was 28.1 µM; in test [6], 33.3 µM. The TGI came out at 47.6 µM in [7], 22.8 µM in [8], 31.5 µM in test [9] and 20.3 µM in [10].
As for `CCNCCC1(CC)C(=O)NC(=O)NC1=O`, the TGI in test [1], in test [2], in test [3], in [4], in test [5] and in test [6] was > 100 µM throughout. The TGI in test [7], in test [8], in test [9] and in test [10] was > 100 µM in each case.
Take `COC(=O)[C@H]1C(=O)[C@@]2(C)[C@H]([C@H](OC(=O)c3ccccc3)[C@]3(O)C[C@H](OC(=O)[C@H](O)[C@@H](NC(=O)c4ccc(F)cc4)c4ccccc4)C(C)=C1C3(C)C)[C@]1(OC(C)=O)CO[C@@H]1C[C@@H]2O`: the GI50 in test [1] is 31.5 nM; in test [2], 120 nM; in [3], 0.00363 µM; in [4], 18.7 nM; in test [5], 41.4 nM; in test [6], 10.1 nM. Moreover, the GI50 is 0.0149 µM in test [7], 10.4 nM in test [8], 0.0122 µM in test [9] and 1890 nM in [10]. Moreover, the TGI in test [2] is > 16.3 µM; in [3], 0.0231 µM; in test [4], > 25 µM; in [5], > 14.4 µM; in [6], 3.42 µM; in [7], > 25 µM. Further, the results for the TGI in test [8], in [9] and in test [10] were > 9.79 µM, > 25 µM and > 25 µM, respectively.
As to `CC(C)CCSC1=CC(=O)c2ccccc2C1=O`, the GI50 was 19800 nM in test [1]; 10300 nM in [2]; 5.5 µM in [3]; 1570 nM in [4]; 1360 nM in [5]; 228 nM in [6]. The GI50 is 18.1 µM in test [7], 723 nM in test [8], 4.02 µM in test [9] and 627 nM in [10]. The TGI was determined as 63.9 µM in test [1]; 21.9 µM in [2]; 30.7 µM in test [3]; 4.24 µM in test [4]; 3.5 µM in test [5]; 0.611 µM in test [6]. Further, the TGI was 34 µM in test [7], 20.1 µM in test [8], 14.8 µM in test [9] and 4.18 µM in [10].
Regarding `O=C1/C=C/[C@@H](O)[C@@H]2C[C@@H](O)C[C@H]2/C=C/CCC[C@H](CCc2ccc(C(F)(F)F)cc2)O1`, the GI50 in test [1] was 53.3 nM; in test [2], 312 nM; in [3], 0.0602 µM; in test [4], 364 nM; in test [5] it was 185 nM; in test [6], 320 nM. Also, the GI50 in test [7] is 0.505 µM; in [8], 25.7 nM; in [9], 0.169 µM; in test [10], 259 nM. Moreover, the TGI is 0.277 µM in [1]; > 100 µM in [2]; > 27.2 µM in test [3]; 2.88 µM in test [4]; 0.368 µM in test [5]; 0.832 µM in [6]. The results for the TGI in [7], in test [8] and in test [9] were > 100 µM, 0.0647 µM and 17.3 µM, respectively.
For `NC(=O)C1c2ccccc2C=Cc2ccccc21`, the GI50 in test [1] is > 100000 nM; in test [2] it was > 100000 nM; in test [3], > 100 µM; in test [4], > 100000 nM; in [5], > 100000 nM; in test [6] it was > 100000 nM. For the same compound, the GI50 in [7] was > 100 µM; in test [8] it was > 100000 nM; in test [9], > 100 µM; in test [10], > 100000 nM. Moreover, the TGI in test [1], in test [2], in test [3], in [4], in [5] and in test [6] was > 100 µM in each case. Besides, the TGI in test [7], in test [8], in test [9] and in [10] was > 100 µM throughout.

Source of the values: PubChem BioAssay (NCI).
